Measurements from patent publication US20230210857A1, “RESPIRATORY STIMULANT PARENTERAL FORMULATIONS” (Enalare Therapeutics Inc., priority 2021, published 2023).

Assays:
Assay type in all cases: physicochemical
[1] = pKa and theoretical free base solubility
[2] = Stability as a function of pH, narrow range pH 2-3.6 (1 mg/mL in ~10 mM citric acid/glycine buffers)
Protocol: Accordingly, the stability of the compound was evaluated in the pH range 2-3.6.
Methodology: Buffer solutions containing ˜10 mM each of citric acid and glycine in the pH range 2-3.6 were prepared by titrating 250 mL of a single stock containing both buffer agents with 1N NaOH/1N HCl and removing 50 mL aliquots at predetermined pH values. Solutions at 1 mg/mL were prepared in the buffers by dissolving ˜25 mg of compound in ˜23 mL of a given buffer, adjusting the pH to the target and making up the volume to 25.0 mL in a volumetric flask.
Each of the buffered solutions was filtered through a 0.2 μm polyether sulfone syringe filter into a volumetric flask previously rinsed with 70% ethanol and dried in a laminar flow hood. Following filtration, each buffered solution was split into 9 aliquots in 5 mL serum vials previously rinsed with 70% ethanol and dried in a laminar flow hood. Filtration and preparation of aliquots were performed in a laminar flow hood. Of the nine aliquots, three aliquots were stored at each 40° C. and 60° C., two aliquots were stored at 25° C. and one aliquot was submitted for T0 testing. Samples were evaluated for pH, assay and related substances at T0 and, following 1 week, 2 weeks and 4 weeks of storage at 40° C. and 60° C. Samples stored at 25° C. served as controls to be analyzed if necessary.
This means that any increase in the pH of the formulation leads to an improvement in stability within the pH range in which an aqueous formulation is feasible.

[3] = Stability as a function of pH 2-6 (1 mg/mL, 0.25 mg/mL at pH 6, in ~10 mM citric acid/glycine buffers)
Text: Thus, the inventors believe that the solubility of the drug becomes inadequate for the intended product concentration above about pH 3.6. However, the drug product will be diluted prior to infusion and then intravenously infused slowly, and such a low pH is unlikely to present a safety or patient comfort issue, but stability of the drug in solution could be an issue at such a low pH. The purpose of this experiment was to assess the stability of the drug as a function of pH.
A key consideration in such an experiment is the concentration of drug and buffer used. Use of a buffer is essential since the data is meaningless if the pH shifts dramatically during the experiment. However, it is desirable to keep the buffer at minimal strength to minimize the impact of buffer catalysis. Buffer strength can be minimized by keeping the drug concentration low. Keeping the drug concentration low also minimizes confounding the data with solubility limits (i.e. the drug precipitating out of solution).
Methodology: Buffer solutions containing ˜10 mM each of citric acid and glycine in the pH range 2-6 were prepared by titrating 250 mL of a single stock containing both buffer agents with 1N NaOH/1N HCl and removing 50 mL aliquots at predetermined pH values. Solutions at 1 mg/mL were prepared in buffers of pH 2-5 by dissolving ˜25 mg of Compounds having the active agent (N-(4,6-Bis-n-propylamino-[1,3,5]triazin-2-yl)-O,N-dimethyl-hydroxylamine) H2SO4 in ˜23 mL of a given buffer, adjusting the pH to the target and making up the volume to 25.0 mL in a volumetric flask. The solution at pH 6 was prepared similarly but at a lower drug concentration of 0.25 mg/mL using 6.68 mg of Compounds having the active agent (N-(4,6-Bis-n-propylamino-[1,3,5]triazin-2-yl)-O,N-dimethyl-hydroxylamine) H2SO4.
Each of the buffered solutions were filtered through a 0.2 μm polyether sulfone syringe filter into a volumetric flask, which had been previously rinsed with 70% ethanol and dried in a laminar flow hood. Following filtration, each buffered solution was split into 10 aliquots (9 aliquots of 2.5 mL each and 1 aliquot of 2 mL) in 5 mL serum vials previously rinsed with 70% ethanol and dried in a laminar flow hood. Filtration and preparation of aliquots were performed in a laminar flow hood. The 2 mL aliquot of each buffered solution was submitted for T0 analysis (HPLC assay and related substances). Of the nine 2.5 mL aliquots, three aliquots were stored at each 40° C. and 60° C., two aliquots were stored at 25° C. and one aliquot was stored at −70° C. Samples stored at 40° C. and at 60° C. were evaluated for physical appearance, pH, assay and related substances after 1 week, 2 weeks and 4 weeks of storage. Samples at 25° C. and −70° C. served as controls to be analyzed if necessary.
The pH values for all the samples remained relatively constant for up to 4 weeks at both storage temperatures.

- pKa [1]: 5.6
- theoretical free base solubility [1]: about 0.18 mg/mL
- Assay ([2]; target pH 2.0, 60° C. 4 wk): 0.786
- Impurities ([2]; target pH 2.7, 60° C. 4 wk): 3.9
- pH ([2]; target pH 3.0, 60° C. 4 wk): 3.00
- Assay ([2]; target pH 3.6, 60° C. 2 wk): 0.958
- solution stability versus pH (in words) ([3]; assay and impurities data, pH 2 compared to pH 3-6): significantly less stable at pH 2
- Impurities ([3]; target pH 2, 40° C. 2 wk): 1.48%
- Impurities ([3]; target pH 2, 40° C. 4 wk): 2.49%
- Impurities ([3]; target pH 2, 60° C. 1 wk): 3.83%
- Impurities ([3]; target pH 2, 60° C. 2 wk): 9.89%
- Impurities ([3]; target pH 2, 60° C. 4 wk): 14.34%
- Impurities ([3]; target pH 3, 40° C. 2 wk): 0.19%
- Impurities ([3]; target pH 3, 40° C. 4 wk): 0.41%
- Impurities ([3]; target pH 3, 60° C. 1 wk): 0.71%
- Impurities ([3]; target pH 3, 60° C. 4 wk): 2.19%
- Impurities ([3]; target pH 4, 40° C. 2 wk): 0.17%
- Impurities ([3]; target pH 4, 40° C. 4 wk): 0.22%
- Impurities ([3]; target pH 4, 60° C. 2 wk): 0.52%
- Impurities ([3]; target pH 4, 60° C. 4 wk): 1.02%
- Impurities ([3]; target pH 5, 60° C. 2 wk): 0.62%
- Impurities ([3]; target pH 5, 60° C. 4 wk): 1.10%
- Impurities ([3]; target pH 6, 40° C. 2 wk): 0.25%
- Impurities ([3]; target pH 6, 40° C. 4 wk): 0.28%
- Impurities ([3]; target pH 6, 60° C. 4 wk): 1.65%
Structure (SMILES): CCCNc1nc(NCCC)nc(N(C)OC)n1 [active agent, N-(4,6-Bis-n-propylamino-[1,3,5]triazin-2-yl)-O,N-dimethyl-hydroxylamine]
